Test results published in publication PMC11809415 (The Journal of Cell Biology, 2025).
“Also recorded” adds a separate entry of the source.

Experiments:
[1] = test system: actin (ADP-ribosylation by TcART, Photorhabdus luminescens); assay: ADP-ribosylation of actin by TcART in presence of actin-binding peptides; assay type: biochemical, rabbit skeletal muscle α-actin; details: for ADP-ribosylation level: relative to no peptide = 1, […] actin, 314 pM TcART, 10 min 37°C; for effect on TcART modification of F-actin (in words): peptides up to 100 µM
Protocol: (§1) Rabbit skeletal muscle α-actin was purified from muscle acetone powder (Pel-Freez Biologicals) as described in [Merino et al. (2018)] and stored in 50 μl aliquots at −70°C.
TcART, the ADP-ribosyltransferase from P. luminescens Tc toxin, was purified from E. coli BL21-CodonPlus(DE3)-RIPL harboring the plasmid pB656 as described previously ([Belyy et al., 2022]).
A total of 8-μl mixtures of 2 μg (4.8 μM final concentration) actin and actin-binding peptides at specified concentrations were preincubated for 5 min at room temperature in the buffer containing 1 mM NAD, 20 mM Tris pH 8, 150 mM NaCl, and 1 mM MgCl2. The ADP ribosylation reaction was initiated by the addition of 0.2 ng (314 pM) of TcART to the mixture. After 10 min of incubation at 37°C, the reaction was stopped by adding Laemmli sample buffer and heating the sample at 95°C for 5 min. The components of the mixture were separated by SDS-PAGE, blotted onto a polyvinylidene difluoride (PVDF) membrane using a Trans-Blot Turbo Transfer System (Bio-Rad), and visualized using a combination of the His-tagged ADP-ribose binding protein at the concentration of 0.01 mg/ml and HisProbe-HRP conjugate. The level of actin ADP-ribosylation was quantified by densitometry using ImageJ.

F-actin [2] = assay: Actin bundling assay using low-speed centrifugation (10,000 g); assay type: biochemical, rabbit skeletal muscle α-actin; details: for F-actin in the pellet: 10 μM actin filaments, 5 min RT, 10,000 g
Protocol: as §1
8 μl of actin filaments at 10 μM were mixed with peptides at the specified concentration, incubated for 5 min at room temperature, and spun down at 10,000 g for 10 min at 4°C. Aliquots of the supernatant and resuspended pellet fractions were separated on SDS-polyacrylamide gels with 2,2,2-trichloroethanol ([Ladner-Keay et al., 2018]) and visualized with ultraviolet light.

F-actin [3] = assay: High-speed cosedimentation with F-actin (120,000 g), SDS-PAGE densitometry; assay type: binding, rabbit skeletal muscle α-actin; details: for Fraction bound: 2 μM mCherry fusion
Protocol: as §1
A single colony was inoculated into 200 ml of LB media and grown at 37°C. At OD600 0.6–1.0, protein expression was induced by the addition of IPTG to a final concentration of 0.02 mM. After 16 h of expression at 22°C, the cells were harvested by centrifugation, resuspended in TBS (20 mM Tris pH 8 and 150 mM NaCl), and lysed by sonication. The soluble fraction was applied on TBS-equilibrated Protino Ni-IDA resin (Macherey-Nagel), washed, eluted with TBS supplemented with 250 mM imidazole, dialyzed against TBS, and stored at −20°C.
Freshly thawed mammalian α-actin was spun down at 120,000 g for 20 min at 4°C using a TLA-120.1 rotor, and the supernatant containing G-actin was collected. The protein was then polymerized by incubation in F buffer (120 mM KCl, 20 mM Tris pH 8, 2 mM MgCl2, 1 mM DTT, and 1 mM ATP) for 2 h on ice. Cosedimentation assays were performed in 20 μl volumes by first incubating F-actin with F-tractinopt-mCherry fusions for 5 min at room temperature and then centrifuging at 120,000 g using the TLA-120.1 rotor for 20 min at 4°C. After centrifugation, aliquots of the supernatant and resuspended pellet fractions were separated on SDS-polyacrylamide gels with 2,2,2-trichloroethanol ([Ladner-Keay et al., 2018]), visualized under ultraviolet light, and analyzed by densitometry using ImageJ (RRID:SCR_003070). The Kd values were calculated using GraphPad Prism software (RRID:SCR_002798).

U-2 OS cells [4] = assay: Nuclear signal enrichment in U-2 OS cells; assay type: cell-based, human; details: EGFP fusions
[5] = test system: U-2 OS cells (actin fibers); assay: Signal-to-noise ratio (fibers/cytosol) in U-2 OS cells; assay type: cell-based, human; details: EGFP fusions, compared with WT F-tractin
U-2 OS cells [6] = assay: FRAP recovery half time in U-2 OS cells; assay type: cell-based, human; details: EGFP fusions
[7] = test system: U-2 OS cells (phalloidin-stained actin); assay: Colocalization with phalloidin in U-2 OS cells (Pearson correlation); assay type: cell-based, human; details: EGFP fusions

With “APRRSVGELRLLFEARAASAA [F-tractinopt, optimized F-tractin peptide; mCherry fusion in cosedimentation, EGFP fusion in cells]” the ADP-ribosylation level ([1]; peptide 1 µM, Repeat 1) was 1,245716, the ADP-ribosylation level ([1]; peptide 1 µM, Repeat 2) was 0,95033 and the ADP-ribosylation level ([1]; peptide 1 µM, Repeat 3) was 1,419998. For the same sequence, the ADP-ribosylation level ([1]; peptide 3 µM, Repeat 1) was 1,210256, the ADP-ribosylation level ([1]; peptide 3 µM, Repeat 2) was 1,296322 and the ADP-ribosylation level ([1]; peptide 3 µM, Repeat 3) was 1,29383. The ADP-ribosylation level ([1]; peptide 10 µM, Repeat 1) was 0,846657, the ADP-ribosylation level ([1]; peptide 10 µM, Repeat 2) was 0,728925 and the ADP-ribosylation level ([1]; peptide 10 µM, Repeat 3) was 1,078508. The ADP-ribosylation level ([1]; peptide 30 µM, Repeat 1) was 0,320904, the ADP-ribosylation level ([1]; peptide 30 µM, Repeat 2) was 0,220558 and the ADP-ribosylation level ([1]; peptide 30 µM, Repeat 3) was 0,140877. The ADP-ribosylation level ([1]; peptide 100 µM, Repeat 1) was 0,032604, the ADP-ribosylation level ([1]; peptide 100 µM, Repeat 2) was 0,100767 and the ADP-ribosylation level ([1]; peptide 100 µM, Repeat 3) was 0,002262. For the same sequence, the “effect on TcART modification of F-actin (in words)” value [1] was “inhibited TcART activity in a similar dose-dependent manner”, the “actin bundling (in words)” value (F-actin [2]; in vitro, up to 100 µM, low-speed centrifugation and cryo-EM) was “minimal actin bundling” and the “F-actin in the pellet” value (F-actin [2]; peptide 1 µM, Repeat 1) was 0,098435. The “F-actin in the pellet” value (F-actin [2]; peptide 1 µM, Repeat 2) was 0,057915, the “F-actin in the pellet” value (F-actin [2]; peptide 1 µM, Repeat 3) was 0,103265 and the “F-actin in the pellet” value (F-actin [2]; peptide 100 µM, Repeat 1) was 0,099007. For the same sequence, the “F-actin in the pellet” value (F-actin [2]; peptide 100 µM, Repeat 2) was 0,095989, the “F-actin in the pellet” value (F-actin [2]; peptide 100 µM, Repeat 3) was 0,158954 and the “F-actin in the pellet” value (F-actin [2]; peptide 1000 µM, Repeat 1) was 0,238373. For the same sequence, the “F-actin in the pellet” value (F-actin [2]; peptide 1000 µM, Repeat 2) was 0,117922, the “F-actin in the pellet” value (F-actin [2]; peptide 1000 µM, Repeat 3) was 0,212762 and the Fraction bound (F-actin [3]; F-actin 2 µM, Repeat 1) was 0,113982. For the same sequence, the Fraction bound (F-actin [3]; F-actin 2 µM, Repeat 2) was 0,125633, the Fraction bound (F-actin [3]; F-actin 2 µM, Repeat 3) was 0,150215 and the Fraction bound (F-actin [3]; F-actin 5 µM, Repeat 1) was 0,211009. The Fraction bound (F-actin [3]; F-actin 5 µM, Repeat 2) was 0,27957, the Fraction bound (F-actin [3]; F-actin 5 µM, Repeat 3) was 0,318841 and the Fraction bound (F-actin [3]; F-actin 10 µM, Repeat 1) was 0,480176. For the same sequence, the Fraction bound (F-actin [3]; F-actin 10 µM, Repeat 2) was 0,433657, the Fraction bound (F-actin [3]; F-actin 10 µM, Repeat 3) was 0,418605 and the Fraction bound (F-actin [3]; F-actin 20 µM, Repeat 1) was 0,569748. The Fraction bound (F-actin [3]; F-actin 20 µM, Repeat 2) was 0,578018, the Fraction bound (F-actin [3]; F-actin 20 µM, Repeat 3) was 0,523474 and the Fraction bound (F-actin [3]; F-actin 40 µM, Repeat 1) was 0,557282. For the same sequence, the Fraction bound (F-actin [3]; F-actin 40 µM, Repeat 2) was 0,621935, the Fraction bound (F-actin [3]; F-actin 40 µM, Repeat 3) was 0,643478 and the “nuclear enrichment (in words)” value (U-2 OS cells [4]) was “slightly higher accumulation of F-tractinopt in the nucleus”. For the same sequence, the “signal-to-noise ratio between actin fibers and cytosol (in words)” value [5] was “behave very similarly (no” and the “exchange / recovery in FRAP (in words)” value (U-2 OS cells [6]) was “exchanged faster than WT F-tractin; also recorded: FRAP recovery rates”.

“APRRSVGELRLLAEARAASAA [F29A F-tractinopt, mCherry fusion in cosedimentation, EGFP fusion in cells]” was tested, and the ADP-ribosylation level ([1]; peptide 100 µM, Repeat 1) was 0,715886, the ADP-ribosylation level ([1]; peptide 100 µM, Repeat 2) was 1,144903 and the ADP-ribosylation level ([1]; peptide 100 µM, Repeat 3) was 1,162086. The “effect on TcART modification of F-actin (in words)” value [1] was “did not interfere with TcART modification of F-actin”, the “binding to actin in cells (in words)” value [7] was “completely failed to bind to actin in cells” and the Kd (F-actin [3]; 2 μM probe as mCherry fusion, F-actin titrated, 5 min at room temperature, three independent experiments) was greater than 100 µM. For the same sequence, the Fraction bound (F-actin [3]; F-actin 2 µM, Repeat 1) was 0,02963, the Fraction bound (F-actin [3]; F-actin 2 µM, Repeat 2) was 0,031317 and the Fraction bound (F-actin [3]; F-actin 2 µM, Repeat 3) was 0,036. For the same sequence, the Fraction bound (F-actin [3]; F-actin 5 µM, Repeat 1) was 0,020561, the Fraction bound (F-actin [3]; F-actin 5 µM, Repeat 2) was 0,008869 and the Fraction bound (F-actin [3]; F-actin 5 µM, Repeat 3) was 0,001393. For the same sequence, the Fraction bound (F-actin [3]; F-actin 10 µM, Repeat 1) was 0,051546, the Fraction bound (F-actin [3]; F-actin 10 µM, Repeat 2) was 0,016783 and the Fraction bound (F-actin [3]; F-actin 10 µM, Repeat 3) was 0,023887. The Fraction bound (F-actin [3]; F-actin 20 µM, Repeat 1) was 0,035971, the Fraction bound (F-actin [3]; F-actin 20 µM, Repeat 2) was 0,051087 and the Fraction bound (F-actin [3]; F-actin 20 µM, Repeat 3) was 0,050633. For the same sequence, the Fraction bound (F-actin [3]; F-actin 40 µM, Repeat 1) was 0,071269, the Fraction bound (F-actin [3]; F-actin 40 µM, Repeat 2) was 0,046373 and the Fraction bound (F-actin [3]; F-actin 40 µM, Repeat 3) was 0,065217. For the same sequence, the “affinity for F-actin (in words)” value (F-actin [3]; cosedimentation, mCherry fusions of F-tractinopt variants) was “barely detectable in the pellet at the highest concentration of F-actin used”.
